# According to publication doi:10.1101/2023.02.27.530254, “Large library docking for cannabinoid-1 receptor agonists with reduced side effects” (bioRxiv, 2024):
# Where “and” joins values, the source holds several entries; their conditions need not be identical. Equal values may be shown once. Read-outs that look alike come from different tables or passages of the source.
# Experiments:
# CB1 = target: T1, CB1 (Rattus norvegicus, UniProt P20272); assay: Radioligand competition binding with [3H]-CP-55,940, rat brain membranes; conditions: for LE: ligand efficiency; for LLE: lipophilic ligand efficiency; for Emax: maximal radioligand displacement, read-out: rCB1 binding Emax [SEM]; for Ki: [3H]-CP-55,940 competition, rat brain membranes
# T1 construct: membrane preparations from rat brain (source of CB1); tissue Bioivt RAT00BRAINMZN; host or cells: rat brain
# T1 sequence (P20272 whole entry): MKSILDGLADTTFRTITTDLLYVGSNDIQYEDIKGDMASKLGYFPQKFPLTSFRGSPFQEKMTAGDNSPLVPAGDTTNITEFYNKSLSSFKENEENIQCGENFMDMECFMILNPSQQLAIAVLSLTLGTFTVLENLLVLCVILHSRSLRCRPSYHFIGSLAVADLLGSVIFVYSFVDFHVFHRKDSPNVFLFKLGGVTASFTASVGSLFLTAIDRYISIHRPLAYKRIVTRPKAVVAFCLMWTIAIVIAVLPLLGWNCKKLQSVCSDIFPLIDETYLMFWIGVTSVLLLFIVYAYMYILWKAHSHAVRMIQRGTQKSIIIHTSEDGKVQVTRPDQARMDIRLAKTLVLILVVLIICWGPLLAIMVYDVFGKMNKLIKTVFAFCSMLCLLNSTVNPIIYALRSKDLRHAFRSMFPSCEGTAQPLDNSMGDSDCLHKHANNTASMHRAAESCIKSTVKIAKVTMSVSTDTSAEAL
# Method: The results were analyzed using nonlinear regression to determine the IC50 and Ki values for each ligand (Prism by GraphPad Software, Inc., San Diego, CA). The Ki values are expressed as the mean of two to three experiments each performed in triplicate.
# [1] = Pharmacokinetics in plasma, brain and CSF; format: in vivo, CD-1 mice; conditions: 0.2 mg/kg i.p., mice; for half-life: in vivo
# Method: The batches of working formulations were prepared 5–10 minutes prior to the in vivo study. […] There was also a one mouse control group. All animals were fasted for 4 h before dosing. Mice were injected i.p. with 2,2,2-tribromoethanol at the dose of 150 mg/kg prior to drawing CSF and blood. Blood collection was performed from the orbital sinus in microtainers containing K3EDTA. CSF was collected under a stereomicroscope from cisterna magna using 1 mL syringes. Animals were sacrificed by cervical dislocation after the blood samples collection. After this, right lobe brain samples were collected and weighted. All samples were immediately processed, flash-frozen and stored at −70°C until subsequent analysis.
# Plasma samples (40 μL) were mixed with 200 μL of internal standard solution. After mixing by pipetting and centrifuging for 4 min at 6,000 rpm, supernatant was injected into LC-MS/MS system. […] After this, the samples were centrifuged for 4 min at 14,000 rpm, and supernatant was injected into LC-MS/MS system. CSF samples (4 μL) were mixed with 100 μL of IS(80) solution. After mixing by pipetting and centrifuging for 4 min at 6,000 rpm, 1–6 μL of each supernatant was injected into LC-MS/MS system.
# Analyses of plasma, brain and CSF samples were conducted at Enamine/Bienta. The concentrations of compounds in samples were determined using high performance liquid chromatography/tandem mass spectrometry (HPLC-MS/MS) method. Data acquisition and system control was performed using Analyst 1.6.3 software (AB Sciex, Canada). The concentrations of the test compound below the lower limit of quantitation (LLOQ: 2–5 ng/mL for plasma and CSF, 1–5 ng/g for brain) were designated as zero. The pharmacokinetic data analysis was performed using noncompartmental, bolus injection or extravascular input analysis models in WinNonlin 5.2 (PharSight). Data below LLOQ were presented as missing to improve validity of T½ calculations.
# hCB1 [2] = target: T2, hCB1 (Homo sapiens, UniProt P21554); assay: bioSens-All ebBRET effector biosensor signaling profiling, HEK293; format: cell-based; design: host or cells: HEK293 (HEK293SL clone), transient; conditions: for RE, relative efficacy: versus CP-55,940
# T2 sequence (P21554 whole entry): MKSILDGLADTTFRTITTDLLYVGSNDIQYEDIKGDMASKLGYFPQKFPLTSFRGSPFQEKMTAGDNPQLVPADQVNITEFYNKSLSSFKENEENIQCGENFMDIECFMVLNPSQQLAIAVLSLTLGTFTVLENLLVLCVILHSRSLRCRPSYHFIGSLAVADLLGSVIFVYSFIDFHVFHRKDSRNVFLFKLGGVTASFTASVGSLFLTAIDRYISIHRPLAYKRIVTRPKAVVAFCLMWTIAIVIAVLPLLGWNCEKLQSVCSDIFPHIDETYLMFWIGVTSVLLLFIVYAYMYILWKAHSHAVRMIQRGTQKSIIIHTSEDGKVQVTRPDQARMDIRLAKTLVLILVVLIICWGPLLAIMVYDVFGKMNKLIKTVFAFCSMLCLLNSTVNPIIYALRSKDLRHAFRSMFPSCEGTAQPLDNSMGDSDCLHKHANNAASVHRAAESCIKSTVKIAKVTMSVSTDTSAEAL
# hCB2 = hCB2 (Homo sapiens, UniProt P34972); assay: as above; format: cell-based; design: host or cells: HEK293 (HEK293SL clone), transient; conditions: for RE, relative efficacy: versus CP-55,940
# Chain of hCB2 (P34972 whole entry): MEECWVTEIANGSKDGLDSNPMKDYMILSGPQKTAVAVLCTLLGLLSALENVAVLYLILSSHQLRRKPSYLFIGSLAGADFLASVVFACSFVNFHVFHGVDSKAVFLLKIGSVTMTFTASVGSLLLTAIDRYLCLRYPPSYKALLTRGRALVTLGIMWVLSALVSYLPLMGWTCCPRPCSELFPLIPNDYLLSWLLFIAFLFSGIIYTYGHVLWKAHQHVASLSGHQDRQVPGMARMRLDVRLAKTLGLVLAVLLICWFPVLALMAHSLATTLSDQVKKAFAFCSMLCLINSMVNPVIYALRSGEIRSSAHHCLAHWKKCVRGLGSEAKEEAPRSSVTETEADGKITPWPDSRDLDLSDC
# hCB1 [3] = target: T2, hCB1; assay: GloSensor cAMP accumulation assay; format: cell-based; design: host or cells: HEK293 (HEK293SL clone), transient; conditions: for Emax: read-out: hCB1 Glosensor cAMP Emax [95% CI]
# Method: The results were analysed using GraphPad Prism 9.1. Each experiment was performed in triplicate and functional IC50 values were determined from the mean of three independent experiments.
# [4] = HEK293, read-out: hCB1 Gi1 Emax [95% CI]
# [5] = HEK293, read-out: hCB1 GoB Emax [95% CI]
# [6] = HEK293, read-out: hCB1 Gz Emax [95% CI]
# [7] = hCB1 Gi1 EC50 [95% CI], Gi1 sensor
# [8] = hCB1 GoB EC50 [95% CI], GoB sensor
# [9] = HEK293, read-out: hCB2 Barr2 + GRK2 Emax [95% CI]
# [10] = HEK293, read-out: hCB2 Gi1 Emax [95% CI]
# [11] = HEK293, read-out: hCB2 Gi2 Emax [95% CI]
# [12] = HEK293, read-out: hCB2 GoB Emax [95% CI]
smiles,measurement,setting,value
COC(=O)C(C)(NC(=O)c1cc(C)n(-c2cccc(C(F)(F)F)c2)n1)c1cccs1 (stereo not drawn) [‘4042],LE,CB1,0.41
same,LLE,CB1,4.6
same,Emax,CB1,99%
same,Ki,CB1; rCB1 binding Ki [95% CI],1.9 nM and 1.86 nM
same,Cmax brain,[1],16.8 ng/g
same,compartments in which compound was found,[1],"appreciably in brain and plasma, but not CSF compartments"
same,AUC(0-inf),"[1]; male, CD-1, mouse, brain, ip, read-out: AUC0→inf brain tissue (converted)",53 ng·h/mL
same,half-life,"[1]; male, CD-1, mouse, ip",1.9 h
same,Cmax,"[1]; male, CD-1, mouse, plasma, ip",5.14 ng/mL and 12 nM
same,AUC(0-inf),"[1]; male, CD-1, mouse, plasma, ip, read-out: AUC0→inf plasma (converted)",22.5 ng·h/mL
same,Emax,"hCB1 [2]; HEK293, read-out: hCB1 Barr2 + GRK2 Emax [95% CI]",72%
same,Emax,"hCB1 [2]; HEK293, read-out: hCB1 G13 Emax [95% CI]",64%
same,Emax,"hCB1 [2]; HEK293, read-out: hCB1 G15 Emax [95% CI]",105%
same,Emax,hCB1 [2]; [4],102%
same,Emax,"hCB1 [2]; HEK293, read-out: hCB1 Gi2 Emax [95% CI]",101%
same,Emax,hCB1 [2]; [5],103%
same,Emax,hCB1 [2]; [6],97%
same,EC50,"hCB1 [2]; hCB1 Barr2 + GRK2 pEC50 [95% CI], ßarrestin-2 PM recruitment sensor with GRK2",3.63 nM
same,"RE, relative efficacy",hCB1 [2]; hCB1 G13,0.91
same,EC50,"hCB1 [2]; hCB1 G13 EC50 [95% CI], G13 sensor",2.1 nM
same,EC50,"hCB1 [2]; hCB1 G13 pEC50 [95% CI], G13 sensor",2.04 nM
same,"RE, relative efficacy",hCB1 [2]; hCB1 G15,0.74
same,EC50,"hCB1 [2]; hCB1 G15 pEC50 [95% CI], G15 sensor",0.372 nM
same,"RE, relative efficacy",hCB1 [2]; hCB1 Gi1,0.97
same,EC50,hCB1 [2]; [7],0.48 nM
same,"RE, relative efficacy",hCB1 [2]; hCB1 Gi2,1.01
same,EC50,"hCB1 [2]; hCB1 Gi2 EC50 [95% CI], Gi2 sensor",0.56 nM
same,EC50,hCB1 [2]; [8],0.64 nM
same,EC50,"hCB1 [2]; hCB1 GoB pEC50 [95% CI], GoB sensor",0.631 nM
same,"RE, relative efficacy",hCB1 [2]; hCB1 GoB,1.04
same,EC50,"hCB1 [2]; hCB1 Gz pEC50 [95% CI], Gz sensor",0.427 nM
same,"RE, relative efficacy",hCB1 [2]; hCB1 Gz,0.62
same,"RE, relative efficacy",hCB1 [2]; hCB1 ßarr2 + GRK2,0.81
same,Emax,hCB2; [9],33%
same,Emax,hCB2; [10],82%
same,Emax,hCB2; [11],70%
same,Emax,hCB2; [12],61%
same,Emax,"hCB2; HEK293, read-out: hCB2 Gz Emax [95% CI]",56%
same,EC50,hCB2; hCB2 Barr2 + GRK2 EC50 [95% CI],5.5 nM
same,"RE, relative efficacy",hCB2; hCB2 Gi1,0.63
same,EC50,hCB2; hCB2 Gi1 EC50 [95% CI],2.7 nM
same,EC50,hCB2; hCB2 Gi1 pEC50 [95% CI],2.63 nM
same,"RE, relative efficacy",hCB2; hCB2 Gi2,0.59
same,EC50,hCB2; hCB2 Gi2 pEC50 [95% CI],1.26 nM
same,EC50,hCB2; hCB2 GoB pEC50 [95% CI],2.51 nM
same,"RE, relative efficacy",hCB2; hCB2 GoB,0.47
same,EC50,hCB2; hCB2 Gz EC50 [95% CI],1.36 nM
same,"RE, relative efficacy",hCB2; hCB2 Gz,0.38
same,"RE, relative efficacy",hCB2; hCB2 ßarr2 + GRK2,0.82
same,EC50,hCB1 [3],0.0398 nM
same,Emax,hCB1 [3],91%
COC(=O)C(NC(=O)c1cc(C)n(-c2cccc(C(F)(F)F)c2)n1)c1cccs1 (stereo not drawn) [‘60154],LE,CB1,0.36
same,LLE,CB1,3.5
same,Emax,CB1,110%
same,Ki,CB1; rCB1 binding Ki [95% CI],44.3 nM
same,Ki,CB1; rCB1 binding pKi [95% CI],39.8 nM
same,Emax,hCB1 [2]; [4],92%
same,Emax,hCB1 [2]; [5],100%
same,Emax,hCB1 [2]; [6],121%
same,EC50,hCB1 [2]; [7],2.5 nM
same,EC50,"hCB1 [2]; hCB1 Gi1 pEC50 [95% CI], Gi1 sensor",25.1 nM
same,EC50,hCB1 [2]; [8],18.4 nM
same,EC50,"hCB1 [2]; hCB1 Gz EC50 [95% CI], Gz sensor",17.5 nM
same,EC50,hCB1 [3],25.1 nM
same,Emax,hCB1 [3],82%
"CCCCCCC(C)(C)c1ccc([C@@H]2C[C@H](O)CC[C@H]2CCCO)c(O)c1 [CP-55,940, reference compound]",Cmax brain,[1],19.2 ng/g
same,plasma Cmax increase compared to ‘4042,[1],~10 fold
same,half-life,"[1]; male, CD-1, mouse, ip",2.12 h
same,Emax,"hCB1 [2]; HEK293, read-out: hCB1 Barr2 + GRK2 Emax [95% CI], ßarrestin-2 sensor with GRK2, normalized to CP-55,940",89%
same,Emax,"hCB1 [2]; HEK293, read-out: hCB1 G13 Emax [95% CI], G13 sensor, normalized to CP-55,940",100%
same,Emax,"hCB1 [2]; HEK293, read-out: hCB1 G15 Emax [95% CI], G15 sensor, normalized to CP-55,940",100%
same,Emax,"hCB1 [2]; HEK293, read-out: hCB1 Gi1 Emax [95% CI], Gi1 sensor, normalized to CP-55,940",100%
same,Emax,"hCB1 [2]; HEK293, read-out: hCB1 Gi2 Emax [95% CI], Gi2 sensor, normalized to CP-55,940",100%
same,Emax,"hCB1 [2]; HEK293, read-out: hCB1 GoB Emax [95% CI], GoB sensor, normalized to CP-55,940",100%
same,Emax,hCB2; [9],100%
same,Emax,hCB2; [10],100%
same,Emax,hCB2; [11],100%
same,Emax,hCB2; [12],100%
